The record followed here is PubChem BioAssay (NCI).

Among the test systems are KM20L2 colon; M19-MEL melanoma; IGROV1 ovarian; RXF 393 renal; SR leukemia; M14 melanoma; LXFL 529 NSCLC; DMS 273 small cell lung; OVCAR-8 ovarian; MCF7 breast; HS 578T breast; PC-3 prostate.
Common to all, as to test: NCI-60 cell line screen, 48 h

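Five concentrations, 48 hours, 96-well plates. GI50 marks 50% less growth. The concentration for full growth arrest is given as TGI.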

Turning to `COc1cc(Cc2ccc3c(c2C#N)N(C)c2ccccc2S3)cc(OC)c1OC`, the TGI in the assay on KM20L2 colon, in the assay on M19-MEL melanoma, in the assay on IGROV1 ovarian, in the assay with RXF 393 renal, in the assay with SR leukemia and with M14 melanoma was over 100 µM each time. Moreover, the TGI in the assay on LXFL 529 NSCLC, in the assay on DMS 273 small cell lung and in the assay with OVCAR-8 ovarian was over 100 µM in each case.
`O=c1oc2c(ccc3c(O)cccc32)c2c1CCCC2`: the TGI in the assay on MCF7 breast was over 100 µM; with IGROV1 ovarian, over 100 µM; with RXF 393 renal, 39.8 µM; in the assay with SR leukemia, over 100 µM; with M14 melanoma it was over 100 µM; in the assay on HS 578T breast, over 100 µM. Further, the TGI in the assay on PC-3 prostate and with OVCAR-8 ovarian was over 100 µM throughout.
`COc1cc(C2S/C(=C/c3ccccc3)C(=O)N2c2ccccc2Cl)cc(OC)c1OC` (configuration not stated): the TGI in the assay on MCF7 breast was over 100 µM; with RXF 393 renal it was 45.1 µM; in the assay on M14 melanoma, 60.5 µM; in the assay on HS 578T breast, 47.5 µM; in the assay with PC-3 prostate, 58.2 µM; with OVCAR-8 ovarian, 49.8 µM.
For the compound `COc1cc2nc(N3CCC[C@@H](NC4=CC(=O)c5ccccc5C4=O)C3)nc(N)c2cc1OC`, the GI50 in the assay with MCF7 breast was 1.71 µM; with SR leukemia, 0.266 µM; in the assay on HS 578T breast, 2.14 µM; with PC-3 prostate, 1.91 µM. In addition, the TGI is 3.39 µM in the assay on MCF7 breast, 0.892 µM with SR leukemia, 4.95 µM in the assay with HS 578T breast and 4.16 µM with PC-3 prostate.
`CCOC(=O)/C(=N/Nc1ccc(Cl)cc1)N1C(=S)C=C(C)NN(C)C1=S`: the TGI is over 100 µM in the assay on MCF7 breast; over 100 µM with IGROV1 ovarian; 41.1 µM in the assay on RXF 393 renal; over 100 µM with SR leukemia; over 100 µM in the assay with M14 melanoma; over 100 µM in the assay on HS 578T breast. This compound showed a TGI in the assay with OVCAR-8 ovarian of 73.1 µM.
As to `Cc1nc(N(CCO)CCO)c2sc(=S)n(-c3ccccc3)c2n1`, the TGI in the assay with IGROV1 ovarian, with SR leukemia, in the assay on LXFL 529 NSCLC and in the assay with OVCAR-8 ovarian was over 100 µM throughout.
Regarding `Cc1ccc(S(=O)(=O)Nc2cc(Sc3ccccc3)c(O)c3ccccc23)cc1`, the GI50 in the assay on MCF7 breast was 1.95 µM; in the assay with IGROV1 ovarian it was 3.5 µM; with RXF 393 renal, 3.11 µM; in the assay with SR leukemia, 3.27 µM; with M14 melanoma, 6.49 µM; in the assay with HS 578T breast, 3.27 µM. Further, the GI50 is 2.2 µM in the assay with PC-3 prostate and 2.28 µM in the assay with OVCAR-8 ovarian. For the same compound, the TGI came out at 4.79 µM with MCF7 breast; 10.4 µM in the assay with IGROV1 ovarian; 9.38 µM in the assay on RXF 393 renal; 12.6 µM in the assay with SR leukemia; 19.9 µM with M14 melanoma; 10.8 µM in the assay with HS 578T breast. Also, the TGI in the assay with PC-3 prostate was found to be 9.29 µM; in the assay on OVCAR-8 ovarian, 5.88 µM.
Consider `C/C(=N\NC(=S)Nc1ccc(Cl)cc1)c1nc2ncccc2[nH]1`, for which the TGI with MCF7 breast is 11.2 µM; in the assay with IGROV1 ovarian, 21.5 µM; in the assay with SR leukemia, over 100 µM; in the assay on M14 melanoma it was 6.54 µM; in the assay with HS 578T breast it was 71.8 µM; in the assay with PC-3 prostate it was 17.4 µM.
Take `BrC1=CN2C[n+]3cc(Br)c4ccccc4c3N=C2c2ccccc21`: the TGI with MCF7 breast is 21.5 µM; with IGROV1 ovarian, 32.1 µM; in the assay with SR leukemia, 9.01 µM; in the assay on M14 melanoma, 18.4 µM; in the assay on HS 578T breast, 61 µM; in the assay with PC-3 prostate it was 33.9 µM. This compound also yielded a TGI with OVCAR-8 ovarian of 38.6 µM.
Consider `COC(=O)C1=C(O)C(C(=O)OC)[C@@]2(O)[C@@H](C(=O)OC)CC[C@@H]1[C@@H]2C(=O)OC` (some centres not stated), for which the TGI in the assay with MCF7 breast was over 100 µM; in the assay with RXF 393 renal, 61.2 µM; in the assay with SR leukemia it was 63.9 µM; in the assay on M14 melanoma it was 62.6 µM; in the assay on HS 578T breast, 33.9 µM.
Consider `CN(CCO)/N=N/c1nc[nH]c1C(N)=O`, for which the TGI in the assay with KM20L2 colon, in the assay with M19-MEL melanoma, in the assay on IGROV1 ovarian, with RXF 393 renal, with SR leukemia and in the assay on M14 melanoma was over 100 µM each time. Moreover, the TGI in the assay with LXFL 529 NSCLC, in the assay with DMS 273 small cell lung and in the assay with OVCAR-8 ovarian was over 100 µM each time.
As to `O=C(O)CN=c1c2ccccc2n(O)c2ccccc12`, the TGI in the assay with KM20L2 colon, with M19-MEL melanoma, in the assay with IGROV1 ovarian, in the assay on M14 melanoma, in the assay with LXFL 529 NSCLC and with DMS 273 small cell lung was over 100 µM in each case. The compound further had a TGI in the assay with OVCAR-8 ovarian of over 100 µM.
Regarding `CCOC(=O)C(=O)Nc1cccc(C)c1C`, the TGI with KM20L2 colon, with M19-MEL melanoma, in the assay with IGROV1 ovarian, in the assay on SR leukemia, with M14 melanoma and with LXFL 529 NSCLC was over 100 µM each time. Further, the TGI in the assay on DMS 273 small cell lung and with OVCAR-8 ovarian was over 100 µM in each case.
Regarding `C/C([O-])=C(/c1nc(-c2ccc([N+](=O)[O-])o2)no1)[n+]1cc(C)ccc1C`, the TGI is 27.5 µM in the assay on KM20L2 colon; 16.2 µM in the assay with MCF7 breast; 17.6 µM with M19-MEL melanoma; over 81.6 µM in the assay on IGROV1 ovarian; 43.2 µM in the assay with RXF 393 renal; 26.1 µM in the assay with DMS 273 small cell lung. Further, the TGI with OVCAR-8 ovarian is over 76.6 µM.
